Test: Evaluation of solubility in organic solvents (visual observation of complete dissolution)
Format: physicochemical
Protocol: [Evaluation of Solubility]
The evaluation of the solubility of the synthesized compound was conducted by the following method.
About 2-3 mg of the compound was precisely weighed, and each solvent was added to the compound such that a predetermined concentration of the solute (0.5 wt %, 0.3 wt %, 0.2 wt %, 0.1 wt %, 0.05 wt %, or 0.03 wt %) was reached. The resultant mixture was stirred for 30 minutes at a predetermined temperature, and then it was evaluated by visual appearance observation whether or not the solute (synthesized compound) was completely dissolved in the solvent, which was the result of the evaluation of the solubility. As the solvent, chloroform (boiling point 61° C.), toluene (boiling point 111° C.), xylene (boiling point 144° C.), mesitylene (boiling point 165° C.), chlorobenzene (boiling point 130° C.), para-chlorotoluene (boiling point 162° C.), and ortho-dichlorobenzene (boiling point 181° C.) were used.

Row | solubility (solute concentration completely dissolved) (chlorobenzene, 25° C.) [wt %] | solubility (solute concentration completely dissolved) (mesitylene, 25° C.) [wt %] | solubility (solute concentration completely dissolved) (mesitylene, 60° C.) [wt %] | solubility (solute concentration completely dissolved) (mesitylene, 100° C.) [wt %] | solubility (solute concentration completely dissolved) (ortho-dichlorobenzene, 25° C.) [wt %] | solubility (solute concentration completely dissolved) (toluene, 25° C.) [wt %] | solubility (solute concentration completely dissolved) (toluene, 60° C.) [wt %] | solubility (solute concentration completely dissolved) (toluene, 100° C.) [wt %] | solubility (solute concentration completely dissolved) (1-methylnaphthalene, 25° C. (room temperature)) [wt %] | solubility (solute concentration completely dissolved) (chlorobenzene, 80° C.) [wt %] | solubility (solute concentration completely dissolved) (chloroform, 60° C.) [wt %] | solubility (solute concentration completely dissolved) (ortho-dichlorobenzene, 80° C.) [wt %] | solubility (solute concentration completely dissolved) (chlorobenzene, 60° C.) [wt %] | solubility (solute concentration completely dissolved) (mesitylene, 80° C.) [wt %] | solubility (solute concentration completely dissolved) (ortho-dichlorobenzene, 60° C.) [wt %] | solubility (solute concentration completely dissolved) (toluene, 80° C.) [wt %] | Structure (SMILES)
1 | ≥ 0.03 | ≥ 0.03 | ≥ 0.1 | ≥ 0.5 | ≥ 0.03 | ≥ 0.03 | ≥ 0.1 | ≥ 0.5 |  |  |  |  |  |  |  |  | CCCCCCCCCCC(F)(F)c1cccc(-c2ccc(-c3c4c(c(-c5ccc(-c6cccc(C(F)(F)CCCCCCCCCC)c6)s5)c5nsnc35)N=S=N4)s2)c1 [Compound (C4), 4,8-bis[5-(3-(1,1-difluoroundecyl)phenyl)thiophene-2-yl]benzo[1,2-c:4,5-c′]bis[1,2,5]thiadiazole]
2 |  |  |  |  |  |  |  |  | ≥ 0.3 | ≥ 0.3 | ≥ 0.2 | ≥ 0.3 |  |  |  |  | CCCCCCCCCCCCCCCCc1cc(-c2ccc(-c3c4c(c(-c5ccc(-c6ccc(C#N)c(CCCCCCCCCCCCCCCC)c6)s5)c5nsnc35)N=S=N4)s2)ccc1C#N [Compound (C19), 4,8-bis[5-(4-cyano-3-hexadecylphenyl)thiophene-2-yl]benzo[1,2-c:4,5-c′]bis[1,2,5]thiadiazole]
3 |  |  |  | ≥ 0.5 |  |  | ≥ 0.1 |  |  | ≥ 0.5 |  | ≥ 0.5 | ≥ 0.1 | ≥ 0.1 | ≥ 0.1 | ≥ 0.5 | CCCCCCc1ccc(-c2ccc(-c3c4c(c(-c5ccc(-c6ccc(CCCCCC)c(OC(F)(F)F)c6)s5)c5nsnc35)N=S=N4)s2)cc1OC(F)(F)F [Compound (C11), 4,8-bis[5-(4-hexyl-3-(trifluoromethoxy)phenyl)thiophene-2-yl]benzo[1,2-c:4,5-c′]bis[1,2,5]thiadiazole]

Reference: patent US9978954B2, “Benzobis (thiadiazole) derivative, ink comprising same, and organic electronic device comprising same” (UBE INDUSTRIES, LTD., priority 2013, dated 2018)
